# Results as given in PubChem BioAssay AID1645867 (Buhrlage Lab, Dana-Farber Cancer Institute and Novartis …, 2021).
# Calls of active or inactive are those of the source. How the calls were made is not given here.
# Target: Ubiquitin carboxyl-terminal hydrolase isozyme L1 (Homo sapiens) (UniProt P09936)
# Experiment: biochemical concentration-response of UCH-L1 DUB inhibitors, hit verification (AID 1645867)
# Conditions: recombinant UCHL1 deubiquitinase activity assay
# Sequence of Ubiquitin carboxyl-terminal hydrolase isozyme L1 (Homo sapiens) (P09936 whole entry, looked up): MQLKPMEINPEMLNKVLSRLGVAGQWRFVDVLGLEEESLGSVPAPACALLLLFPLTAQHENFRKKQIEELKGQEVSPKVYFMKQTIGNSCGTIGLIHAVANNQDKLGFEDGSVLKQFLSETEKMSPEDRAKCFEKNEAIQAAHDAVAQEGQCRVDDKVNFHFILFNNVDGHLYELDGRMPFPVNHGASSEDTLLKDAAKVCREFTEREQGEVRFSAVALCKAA
row,Compound,IC50
1,COc1cc(O)cc2c1C(=O)OC(C)CCCCCCC2 (centres undefined),> 25 µM (inactive)
2,Cc1ccc(NCc2cc3c(-c4cccc(F)c4)nn(-c4ccccc4)c3[nH]c2=O)cc1C,21.6 µM
3,O=C(NC1CC2(CCOCC2)Oc2ccccc21)c1cnccn1 (centres undefined),> 25 µM (inactive)
4,CCc1[nH]c(=O)cc2cc(OC)c(OC)cc12,23.5 µM
5,COc1ccc(CCn2c(-c3ccccc3)nc3c(c(=O)c4ccccc4n3C)c2=O)cc1OC,> 25 µM (inactive)
6,O=c1c(-c2nc(-c3ccncc3)no2)cccn1Cc1c(F)cccc1Cl,> 25 µM (inactive)
7,Cc1nc(C2(NC(=O)Nc3ccc(F)cc3F)CCCC2)no1,> 25 µM (inactive)
8,CCc1ccc(-n2c(C)cc(/C=C3\C(=N)N4N=CSC4=NC3=O)c2C)cc1,> 25 µM (inactive)
9,COc1ccc(-c2cc3nc([C@H](C)NC(=O)Cc4ccccc4C)nn3cn2)cc1,> 25 µM (inactive)
10,CN(Cc1ccccc1)S(=O)(=O)c1ccc2[nH]c(=O)[nH]c2c1,> 25 µM (inactive)
11,O=C(Nc1ccc(NC(=O)c2ccccc2O)cc1)Nc1ccc(OCc2ccccc2)cc1,> 25 µM (inactive)
12,COc1ccc(Cl)cc1NC(=O)CSc1ncnc2nc[nH]c12,> 25 µM (inactive)
13,COc1ccc(NC(=O)C2C3C=CC4(O3)C2C(=O)N(CCc2ccccc2)C4C(=O)NC2CCCCC2)cc1 (centres undefined),> 25 µM (inactive)
14,O=c1c2cnc(N3CCCCC3)nc2ccn1CCc1ccccc1,> 25 µM (inactive)
15,CC(C)CC[C@H]1O[C@@H](CC(=O)O)Cc2cc3c(c(O)c21)C(=O)c1sc(=O)n(C)c1C3=O,> 25 µM (inactive)
16,Cn1c(=O)c2ncnnc2n(C)c1=O,16.3 µM
17,O=C(NCCc1nc2ccccc2n1CCOc1ccccc1Cl)C1CCCCC1,> 25 µM (inactive)
18,CCc1ccc(S(=O)(=O)c2cn(CC(=O)Nc3ccccc3)c3ccccc3c2=O)cc1,> 25 µM (inactive)
19,CCOc1ccc(-n2ccnc(SCC(=O)Nc3ccccc3Cl)c2=O)cc1,> 25 µM (inactive)
20,COc1ccc(CNC(=O)Nc2cccc3ccccc23)cc1,> 25 µM (inactive)
21,O=C(COC(=O)c1cnccn1)Nc1ccc(Cl)cc1C(=O)c1ccccc1,> 25 µM (inactive)

row,Compound,IC50
1,N#Cc1ccc(NC(=O)Nc2cccn(Cc3ccccc3Br)c2=O)cc1,> 25 µM (inactive)
2,CS(=O)(=O)n1nc(NCc2ccc(F)cc2)nc1NCc1ccc(F)cc1,> 25 µM (inactive)
3,COc1ccccc1OCCSc1nnc(-c2ccc3c(c2)OCCCO3)n1C,> 25 µM (inactive)
4,C=Cc1cc(OC)c2c(c1)c(=O)oc1c2cc(OC)c2c(O)ccc([C@H]3OC(C)[C@@H](OC(C)=O)C(N(C)C)C3O)c21 (some centres undefined),> 25 µM (inactive)
5,O=C1CSC(c2ccc(F)cc2)c2c(n(C3CCCCCC3)[nH]c2=O)N1 (centres undefined),> 25 µM (inactive)
6,O=C(Cn1c(=O)n(Cc2ccccc2)c(=O)c2ncccc21)NCc1ccccc1Cl,> 25 µM (inactive)
7,COc1cn(-c2ccc(F)cc2)nc1C(=O)Nc1ccc(Cl)cc1Cl,23.2 µM
8,COc1c(C(=O)Nc2nnc(C3CC3)s2)csc1Cl,> 25 µM (inactive)
9,O=C(NCC(c1cccnc1)N1CCOCC1)C1CCCCC1 (centres undefined),> 25 µM (inactive)
10,CCOc1ccccc1C1CC(=O)Nc2ccc3ccccc3c21 (centres undefined),> 25 µM (inactive)
11,Cc1nc(C(=O)NC2(O)C(=O)c3ccccc3C2=O)cs1,20.7 µM
12,COc1ccc(OCC(=O)N(Cc2cccc3ccccc23)c2ccccn2)cc1,> 25 µM (inactive)
13,Cc1cc(C)n2nc(Cc3ccccc3)nc2n1,> 25 µM (inactive)
14,N#Cc1cccc(NC(=O)Nc2cccn(Cc3ccccc3F)c2=O)c1,17.1 µM
15,Cc1ccc2cc(-c3noc(CCC(=O)NC4CCCC4)n3)c(=O)[nH]c2c1,> 25 µM (inactive)
16,COc1ccc(NC(=O)Cn2c(=O)n(-c3ccc(CC(=O)NCc4ccco4)cc3)c(=O)c3ccccc32)cc1Cl,> 25 µM (inactive)
17,NC(=O)C1(N2CCCCC2)CCN(CC(=O)Nc2cc(Cl)ccc2Cl)CC1,> 25 µM (inactive)
18,COc1ccc(CNC(=O)c2ccc3c(=O)nc4c(-c5cccc(C)c5)n[nH]n4c3c2)cc1,> 25 µM (inactive)
19,O=C(Nc1cccc(-c2nc3cnccc3o2)c1)c1ccc(Br)o1,> 25 µM (inactive)
20,O=C(COc1ccccc1)Nc1ccc(-c2nc3cnccc3o2)c(O)c1,> 25 µM (inactive)
21,Cc1ccc(NC(=O)C2C3C=CC4(O3)C2C(=O)N(C2CCCCC2)C4C(=O)NC2CCCCC2)cc1C (centres undefined),> 25 µM (inactive)

row,Compound,IC50
1,CC(C)c1ccc(C2CC(=O)c3cn[nH]c3C2)cc1 (centres undefined),> 25 µM (inactive)
2,COc1cc(NC(=O)Cn2cc(C(=O)c3ccccc3)c(=O)c3cc(Cl)ccc32)cc(OC)c1,> 25 µM (inactive)
3,O=C(NCc1ccco1)c1cccc(S(=O)(=O)N2CC(c3ccccc3)CC2=O)c1 (centres undefined),> 25 µM (inactive)
4,COc1ccc(-c2cc3nc([C@H](C)NC(=O)COc4ccccc4F)nn3cn2)cc1,> 25 µM (inactive)
5,Cc1nn(-c2ccccc2)c2c1C1(C(=O)Nc3ccccc31)N1C(=N2)Sc2ccccc21 (centres undefined),> 25 µM (inactive)
6,CCOc1ccc2c(c1)c(=O)c(C(=O)c1ccccc1)cn2CC(=O)Nc1ccc(OC)cc1,> 25 µM (inactive)
7,O=C(Cn1cccc(-c2nc(-c3ccccc3)no2)c1=O)Nc1ccccc1F,> 25 µM (inactive)
8,O=C(CS(=O)(=O)c1ccc(F)cc1)Nc1ccc(-c2nc3ccccc3s2)c(O)c1,> 25 µM (inactive)
9,COc1ccc(OC)c(C2=NO[C@]3(C(=O)Nc4ccccc43)[C@H]2C(=O)c2ccc(OC)c(OC)c2)c1,> 25 µM (inactive)
10,Cc1nn(-c2ccccc2)c2c1N=C1C(Cl)=CC(Cl)=CN1C21C(=O)Nc2ccccc21 (centres undefined),3.72 µM
11,CC(C)C(=O)Nc1nc2cc(NS(=O)(=O)c3ccccc3)ccc2s1,> 25 µM (inactive)
12,CC(C)c1cc(C2CCCN2C(=O)Cc2ccc(Cl)cc2)no1 (centres undefined),> 25 µM (inactive)
13,Cc1ccc(C(=O)c2cn(CC(=O)Nc3ccc4c(c3)OCO4)c3ccccc3c2=O)cc1,> 25 µM (inactive)
14,O=C(Nc1cccc(Br)c1)c1cc(-c2cccnc2)n[nH]1,> 25 µM (inactive)
15,CCOc1ccc(-c2ccc3nnc(SCC(=O)Nc4ccc(F)cc4)n3n2)cc1,> 25 µM (inactive)
16,O=C(Nc1nc2c(s1)CN(C(=O)c1cc(-c3ccco3)on1)CC2)C1CCCO1 (centres undefined),> 25 µM (inactive)
17,O=C(C1CCCCC1)N1CCC(c2nc3c(nnn3Cc3cccc(F)c3)c(=O)[nH]2)CC1,> 25 µM (inactive)
18,COc1ccc(NC(=O)Cn2cc(C(=O)c3ccc(Cl)cc3)c(=O)c3cc(F)ccc32)cc1,> 25 µM (inactive)
19,Cc1ccc(NC(=O)Cc2nnc3cc(-c4nc(C)no4)ccn23)cc1,> 25 µM (inactive)
20,COc1cc(NC(=O)c2ccc3c(c2)OCO3)ccc1-c1cc2ccccc2oc1=O,> 25 µM (inactive)
21,Brc1ccc(Sc2cnns2)cc1,> 25 µM (inactive)

row,Compound,IC50
1,O=c1oc2ccccc2cc1-c1nc(-c2ccc(Oc3ccccc3)cc2)cs1,> 25 µM (inactive)
2,COc1ccc(CC(=O)Nc2c(NCc3ccccc3)c3ccccc3oc2=O)cc1,> 25 µM (inactive)
3,COc1ccc2c(C)c(CC(=O)N3CCC[C@H]3C(=O)O)c(=O)oc2c1C,> 25 µM (inactive)
4,CNc1nc2c(c(=O)n1C)CN(C(=O)Nc1cccc3ccccc13)CC2,> 25 µM (inactive)
5,O=C1C=C(O)c2c(O)cccc2C1=O,> 25 µM (inactive)
6,Cc1ncc(CO)c2c1Oc1nc(-c3cccc(Cl)c3)nc(SCC(=O)N3CCCCC3)c1C2,> 25 µM (inactive)
7,Cc1nc(-c2ccc(C(=O)Nc3ccc(F)cc3)cc2)cs1,> 25 µM (inactive)
8,COc1cccc2cc(C(=O)Nc3nc(-c4ccncc4)cs3)oc12,> 25 µM (inactive)
9,Cc1ccc(C2CN3C(=O)CN(C4CC4)C(=O)[C@]3(C)c3[nH]c4ccccc4c32)cc1 (some centres undefined),> 25 µM (inactive)
10,Cc1ccc(C2CC(=O)C3=C(C2)Nc2ccccc2N(C(=O)c2ccccc2)C3c2ccccc2)cc1 (centres undefined),> 25 µM (inactive)
11,CCCc1ccc(C(=O)[C@@H]2[C@@H](C(=O)c3cccs3)N3c4ccc(C)cc4C(C)=C[C@@H]3[C@@]23C(=O)Nc2ccccc23)cc1,> 25 µM (inactive)
12,Cc1ccccc1NC(=O)Nc1ccccc1OCc1cc(=O)n2cccc(C)c2n1,> 25 µM (inactive)
13,COc1ccc(Cl)cc1NC(=O)c1cc(-c2ccccn2)n[nH]1,> 25 µM (inactive)
14,O=C1NC2(CCCc3ccccc32)C(=O)N1Cc1csc(-c2ccccc2)n1 (centres undefined),> 25 µM (inactive)
15,COc1ccc2nc(N3CCN(C(=O)C4CCCCC4)CC3)sc2c1,> 25 µM (inactive)
16,O=c1c(S(=O)(=O)c2cc(F)cc(F)c2)c[nH]c2cc(Cl)ccc12,> 25 µM (inactive)
17,O=C(CCc1nc2sc3c(c2c(=O)[nH]1)CCCCC3)Nc1ccc(F)cc1F,> 25 µM (inactive)
18,Cc1cccc(NC(=O)Cn2cccc(S(=O)(=O)N3CCC(C)CC3)c2=O)c1C,> 25 µM (inactive)
19,COC1=C(C2=C(OC)C(=O)c3cc4c(c(O)c3C2=O)C(=O)OC(C)C4)C(=O)c2c(cc3c(c2O)C(=O)OC(C)C3)C1=O (centres undefined),11.9 µM
20,O=c1c(O)c(-c2ccc(O)c(O)c2)oc2cc(O)cc(O)c12,2.32 µM
21,COc1ccc(-c2cc3nc([C@H](C)NC(=O)Cc4cc(F)ccc4F)nn3cn2)cc1,> 25 µM (inactive)
